Measurements reported in patent US20250296953A1, “3,4-THIAZOLO-STEROIDS AND METHODS OF MAKING AND USING THE SAME” (Arkansas State University - Jonesboro, priority 2018, published 2025).
Where two headings read alike, the source gives them in different places.

Tests used:
RPMI-8226 = test: NCI 60 five dose screen
NCI-H522 (NSCLC) = test: NCI 60 one dose screen; format: cell-based, human; conditions: Non-small Cell Lung Cancer
[1] = tested on: 60 different human tumor cell lines; conditions: five dose
SR = test: NCI 60 five dose screen
gliosarcoma (SF-539) = test: NCI 60 five dose screen
SF-295 = test: NCI 60 one dose screen; format: cell-based, human; conditions: one dose; CNS Cancer; SF-295
SK-MEL-25 = test: Melanoma cytotoxicity assay (resazurin); format: cell-based; conditions: SK-MEL-25 melanoma cells, 24 hours with compound, resazurin; concentration not given
In short: (§1)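 ~4000 cells/well seeded 24 h, then compound added in triplicate for 24 h at 37° C, 5% CO2. Resazurin added for 6 h; fluorescence at 544/590 nm, background-subtracted and normalised to DMSO wells as % viability; IC50 from sigmoidal fit of serial dilutions.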

SK-MEL-28 = test: Melanoma cytotoxicity assay (resazurin); format: cell-based; conditions: SK-MEL-28 melanoma cells, 24 hours with compound, resazurin; concentration not given
In short: as §1

Compound: C[C@]12CCc3sc(Nc4ccc(OC(F)(F)F)cc4)nc3C1=CC[C@@H]1[C@@H]2CC[C@]2(C)C(=O)CC[C@@H]12 [IIa.19, (1S,2R,13R,14S,18S)-2,18-dimethyl-7-[4-(trifluoromethoxy)anilino]-6-thia-8-azapentacyclo[11.7.0.02,10.05,9.014,18]icosa-5(9),7,10-trien-17-one]
- GI50 (RPMI-8226; Homo sapiens, RPMI-8226): 1020 nM
- CC50 (RPMI-8226; Homo sapiens, RPMI-8226, read-out: LC50): > 100000 nM
- TGI (RPMI-8226; RPMI-8226 (Leukemia), five dose): 3.77E−6
- Growth Percent (NCI-H522 (NSCLC)): 89.13%
- TGI ([1]; A549/ATCC (Non-small Cell Lung Cancer)): 1.61E−5
- TGI ([1]; CCRF-CEM (Leukemia)): >1.00E−4
- TGI ([1]; COLO 205 (Colon Cancer)): 6.76E−6
- TGI ([1]; EKVX (Non-small Cell Lung Cancer)): 1.74E−5
- TGI ([1]; HCC-2998 (Colon Cancer)): 1.86E−5
- TGI ([1]; HCT-15 (Colon Cancer)): 4.10E−6
- TGI ([1]; HCT-116 (Colon Cancer)): 2.78E6
- TGI ([1]; HL-60(TB) (Leukemia)): 4.44E−6
- TGI ([1]; HOP-62 (Non-small Cell Lung Cancer)): 4.19E−6
- TGI ([1]; HOP-92 (Non-small Cell Lung Cancer)): 3.44E−6
- TGI ([1]; HT29 (Colon Cancer)): 1.09E−5
- TGI ([1]; K-562 (Leukemia)): 6.64E−6
- TGI ([1]; KM12 (Colon Cancer)): 1.50E−5
- TGI ([1]; LOX IMVI (Melanoma)): 3.18E−6
- TGI ([1]; MALME-3M (Melanoma)): 1.68E−5
- TGI ([1]; MOLT-4 (Leukemia)): 1.19E−5
- TGI ([1]; NCI-H23 (Non-small Cell Lung Cancer)): 2.17E−5
- TGI ([1]; NCI-H226 (Non-small Cell Lung Cancer)): 4.41E−5
- TGI ([1]; NCI-H322M (Non-small Cell Lung Cancer)): 4.89E−5
- TGI ([1]; NCI-H460 (Non-small Cell Lung Cancer)): 1.18E−5
- TGI ([1]; NCI-H522 (Non-small Cell Lung Cancer)): 4.56E−6
- TGI ([1]; SF-268 (CNS Cancer)): 1.23E−5
- TGI ([1]; SNB-19 (CNS Cancer)): 9.93E−6
- TGI ([1]; SNB-75 (CNS Cancer)): 6.23E−6
- TGI ([1]; SW-620 (Colon Cancer)): 5.00E−6
- TGI ([1]; U251 (CNS Cancer)): 3.26E−6
- GI50 (SR; Homo sapiens, SR): 2740 nM
- CC50 (SR; Homo sapiens, SR, read-out: LC50): > 100000 nM
- TGI (SR; SR (Leukemia), five dose): >1.00E−4
- GI50 (gliosarcoma (SF-539); Homo sapiens, SF-539): 1050 nM
- CC50 (gliosarcoma (SF-539); Homo sapiens, SF-539, read-out: LC50): 7070 nM
- TGI (gliosarcoma (SF-539); SF-539 (CNS Cancer), five dose): 2.72E−6
- Growth Percent (SF-295): −2.71%
- SK-MEL-25 (% inhibition) (SK-MEL-25): 24%
- SK-MEL-28 (% inhibition) (SK-MEL-28): 97%
